US12351580B2, “NLRP3 modulators” (Innate Tumor Immunity, Inc., priority 2017, dated 2025)
pEC50: −log10 of the molar value.

molecular target: T1, TLR7 (Homo sapiens, UniProt Q9NYK1); assay: In vitro human TLR7 binding reporter assay (HEK-Blue, NF-kB/AP1-inducible SEAP); assay type: cell-based; conditions: activity range symbols
T1 construct: host or cells: HEK-Blue cells (human HEK) co-expressing TLR7 and an NF-kB/AP1-inducible SEAP reporter
T1 sequence (Q9NYK1 27-1049): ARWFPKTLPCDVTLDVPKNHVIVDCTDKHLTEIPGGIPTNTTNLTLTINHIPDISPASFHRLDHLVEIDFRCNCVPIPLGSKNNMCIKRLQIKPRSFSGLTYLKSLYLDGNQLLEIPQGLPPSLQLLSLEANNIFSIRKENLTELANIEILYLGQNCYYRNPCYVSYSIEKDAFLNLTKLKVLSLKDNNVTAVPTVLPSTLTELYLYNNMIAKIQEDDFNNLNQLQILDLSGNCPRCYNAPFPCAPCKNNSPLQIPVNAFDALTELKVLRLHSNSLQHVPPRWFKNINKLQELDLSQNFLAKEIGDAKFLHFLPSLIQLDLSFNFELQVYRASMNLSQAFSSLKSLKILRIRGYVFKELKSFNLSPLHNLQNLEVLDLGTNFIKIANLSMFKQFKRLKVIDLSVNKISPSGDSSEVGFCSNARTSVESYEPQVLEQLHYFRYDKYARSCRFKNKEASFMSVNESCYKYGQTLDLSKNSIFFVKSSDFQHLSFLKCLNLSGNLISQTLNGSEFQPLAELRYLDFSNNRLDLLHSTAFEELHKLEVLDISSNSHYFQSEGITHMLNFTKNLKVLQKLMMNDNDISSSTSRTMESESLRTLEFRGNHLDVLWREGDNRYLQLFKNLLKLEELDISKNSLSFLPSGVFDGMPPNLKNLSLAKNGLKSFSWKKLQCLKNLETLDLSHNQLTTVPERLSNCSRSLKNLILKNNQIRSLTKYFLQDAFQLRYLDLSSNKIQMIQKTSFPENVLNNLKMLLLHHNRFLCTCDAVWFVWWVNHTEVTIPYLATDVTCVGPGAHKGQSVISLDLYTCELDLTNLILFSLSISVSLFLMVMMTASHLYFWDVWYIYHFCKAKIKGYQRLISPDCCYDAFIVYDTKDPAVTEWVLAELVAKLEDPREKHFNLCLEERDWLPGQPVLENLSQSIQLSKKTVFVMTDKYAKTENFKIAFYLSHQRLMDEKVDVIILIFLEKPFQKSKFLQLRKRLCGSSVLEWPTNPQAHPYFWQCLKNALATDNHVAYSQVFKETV
How it was run: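 Reporter cells are plated at 15,000 per well and rested 24 h. Next day, test compounds or DMSO are dispensed, followed by 18 h incubation at 37 °C, 5% CO2.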

Row | pEC50 | Compound
1 | < 4.00 | CCC(=O)NCc1nc2c(N)nc3cc(-c4cc[nH]n4)ccc3c2[nH]1 [Compound 111]
2 | < 4.00 | CCN(Cc1nc2c(N)nc3cc(-c4cc[nH]n4)ccc3c2[nH]1)C(=O)c1nccs1 [Compound 114]
3 | < 4.00 | CN(Cc1nc2c(N)nc3cc(-c4cc[nH]n4)ccc3c2[nH]1)S(C)(=O)=O [Compound 115]
4 | 4.00 to 4.70 | CC(c1nc2c(N)nc3cc(-n4cccn4)ccc3c2[nH]1)N1CCCC1=O (centres unmarked) [Compound 117]
5 | < 4.00 | CCN(Cc1nc2c(N)nc3cc(-c4cc[nH]n4)ccc3c2[nH]1)C(=O)C1CC1 [Compound 118]
6 | < 4.00 | Nc1nc2cc(-c3cccs3)ccc2c2[nH]c(CN3CCCC3=O)nc12 [Compound 309, 1-[(4-amino-7-thiophen-2-yl-1H-imidazo[4,5-c]quinolin-2-yl)methyl]pyrrolidin-2-one]
7 | < 4.00 | N#Cc1ccccc1-c1ccc2c(c1)nc(N)c1nc(CN3CCCC3=O)[nH]c12 [Compound 315, 2-[4-amino-2-[(2-oxopyrrolidin-l-yl)methyl]-1H-imidazo[4,5-c]quinolin-7-yl]benzonitrile]
8 | < 4.00 | Nc1nc2cc(Br)ccc2c2[nH]c(CN3CC(c4ccccc4)CC3=O)nc12 (centres unmarked) [Compound 316, 1-[(4-amino-7-bromo-1H-imidazo[4,5-c]quinolin-2-yl)methyl]-4-phenylpyrrolidin-2-one]
9 | < 4.00 | COc1ncccc1-c1ccc2c(c1)nc(N)c1nc(CN3CCCC3=O)[nH]c12 [Compound 319, 1-[[4-amino-7-(2-methoxypyridin-3-yl)-1H-imidazo[4,5-c]quinolin-2-yl]methyl]pyrrolidin-2-one]
10 | < 4.00 | Nc1nc2cc(-c3cccnc3Cl)ccc2c2[nH]c(CN3CCCC3=O)nc12 [Compound 320, 1-[[4-amino-7-(2-chloropyridin-3-yl)-1H-imidazo[4,5-c]quinolin-2-yl]methyl]pyrrolidin-2-one]
11 | 4.00 to 4.70 | Nc1nc2cc(-c3cnccc3Cl)ccc2c2[nH]c(CN3CCCC3=O)nc12 [Compound 321, 1-[[4-amino-7-(4-chloropyridin-3-yl)-1H-imidazo[4,5-c]quinolin-2-yl]methyl]pyrrolidin-2-one]
12 | < 4.00 | Nc1nc2cc(-c3ccc(C(F)(F)F)nc3)ccc2c2[nH]c(CN3CCCC3=O)nc12 [Compound 324, 1-[[4-amino-746-(trifluoromethyppyridin-3-yl]-1H-imidazo[4,5-c]quinolin-2-yl]methyl]pyrrolidin-2-one]
13 | < 4.00 | N#Cc1cncc(-c2ccc3c(c2)nc(N)c2nc(CN4CCCC4=O)[nH]c23)c1 [Compound 326, 5-[4-amino-2-[(2-oxopyrrolidin-l-yl)methyl]-1H-imidazo[4,5-c]quinolin-7-yl]pyridine-3-carbonitrile]
14 | < 4.00 | N#Cc1ccc(-c2ccc3c(c2)nc(N)c2nc(CN4CCCC4=O)[nH]c23)cn1 [Compound 327, 5-[4-amino-2-[(2-oxopyrrolidin-l-yl)methyl]-1H-imidazo[4,5-c]quinolin-7-yl]pyridine-2-carbonitrile]
15 | < 4.00 | Nc1nc2cc(-c3cncc(Cl)c3)ccc2c2[nH]c(CN3CCCC3=O)nc12 [Compound 328, 1-[[4-amino-7-(5-chloropyridin-3-yl)-1H-imidazo[4,5-c]quinolin-2-yl]methyl]pyrrolidin-2-one]
16 | < 4.00 | Nc1nc2cc(-c3ccc(F)nc3)ccc2c2[nH]c(CN3CCCC3=O)nc12 [Compound 330, 1-[[4-amino-7-(6-fluoropyridin-3-yl)-1H-imidazo[4,5-c]quinolin-2-yl]methyl]pyrrolidin-2-one]
17 | < 4.00 | Nc1nc2cc(-c3cncc(F)c3)ccc2c2[nH]c(CN3CCCC3=O)nc12 [Compound 331, 1-[[4-amino-7-(5-fluoropyridin-3-yl)-1H-imidazo[4,5-c]quinolin-2-yl]methyl]pyrrolidin-2-one]
18 | < 4.00 | Nc1nc2cc(C3CCCCCC3)ccc2c2[nH]c(CN3CCCC3=O)nc12 [Compound 332, 1-[(4-amino-7-cycloheptyl-1H-imidazo[4,5-c]quinolin-2-yl)methyl]pyrrolidin-2-one]
19 | < 4.00 | Nc1nc2cc(-c3cccnc3)ccc2c2[nH]c(CN3CC(c4ccccc4)CC3=O)nc12 (centres unmarked) [Compound 333, 1-[(4-amino-7-pyridin-3-yl-1H-imidazo[4,5-c]quinolin-2-yl)methyl]-4-phenylpyrrolidin-2-one]
20 | < 4.00 | COC(=O)CCCn1c(CN2CCCC2=O)nc2c(N)nc3ccccc3c21 [Compound 335]
21 | < 4.00 | CN(C)C(=O)CCCn1c(CN2CCCC2=O)nc2c(N)nc3cc(Cl)ccc3c21 [Compound 337]
22 | < 4.00 | CN(C)C(=O)CCCn1c(CN2CCCC2=O)nc2c(N)nc3cc(-c4cccnc4)ccc3c21 [Compound 340]
23 | < 4.00 | COC(=O)CCCn1c(CN2CCCC2=O)nc2c(N)nc3cc(Br)ccc3c21 [Compound 341]
24 | < 4.00 | COC(=O)CCCn1c(CN2CCCC2=O)nc2c(N)nc3cc(-c4cccnc4)ccc3c21 [Compound 342]
25 | < 4.00 | Nc1nc2ccccc2c2[nH]c(CN3CCCCC3=O)nc12 [Compound 346]
26 | < 4.00 | COC(=O)CCCn1c(CN2CCCCC2=O)nc2c(N)nc3ccccc3c21 [Compound 347]
27 | < 4.00 | CN(C)Cc1nc2c(N)nc3cc(-c4cc[nH]n4)ccc3c2[nH]1 [Compound 348]

Row | pEC50 | Compound
28 | < 4.00 | CCN(C)Cc1nc2c(N)nc3cc(-c4cc[nH]n4)ccc3c2[nH]1 [Compound 349]
29 | < 4.00 | Nc1nc2cc(-n3cccn3)ccc2c2[nH]c(CN3C[C@@H](c4ccccc4)CC3=O)nc12 [Compound 357]
30 | < 4.00 | Nc1nc2cc(-n3cccn3)ccc2c2[nH]c(CN3C[C@H](c4ccccc4)CC3=O)nc12 [Compound 358]
31 | < 4.00 | Nc1nc2cc(-c3cc[nH]n3)ccc2c2[nH]c(CN3C(=O)OCC3c3ccccc3)nc12 (centres unmarked) [Compound 363]
32 | < 4.00 | Nc1nc2cc(-c3cc[nH]n3)ccc2c2[nH]c(CN3CCOC3=O)nc12 [Compound 365]
33 | < 4.00 | CN1CCN(Cc2nc3c(N)nc4cc(-c5cc[nH]n5)ccc4c3[nH]2)C1=O [Compound 368]
34 | < 4.00 | CN(Cc1nc2c(N)nc3cc(-c4cc[nH]n4)ccc3c2[nH]1)C(=O)CO [Compound 370]
35 | < 4.00 | CN(Cc1nc2c(N)nc3cc(-c4cc[nH]n4)ccc3c2[nH]1)C(=O)CN [Compound 372]
36 | < 4.00 | CN(C)C(=O)N(C)Cc1nc2c(N)nc3cc(-c4cc[nH]n4)ccc3c2[nH]1 [Compound 375]
37 | < 4.00 | CN(Cc1nc2c(N)nc3cc(-c4cc[nH]n4)ccc3c2[nH]1)C(=O)c1ccccc1 [Compound 376]
38 | < 4.00 | CN(Cc1nc2c(N)nc3cc(-c4cc[nH]n4)ccc3c2[nH]1)C(=O)c1nccs1 [Compound 377]
39 | < 4.00 | CCN(C=O)Cc1nc2c(N)nc3cc(-c4cc[nH]n4)ccc3c2[nH]1 [Compound 379]
40 | < 4.00 | CCN(Cc1nc2c(N)nc3cc(-c4cc[nH]n4)ccc3c2[nH]1)C(=O)CN(C)C [Compound 383]
41 | < 4.00 | CCN(Cc1nc2c(N)nc3cc(-c4ccn(C)n4)ccc3c2[nH]1)C(=O)OC(C)(C)C [Compound 393]
42 | < 4.00 | CCN(Cc1nc2c(N)nc3cc(-c4ccsc4)ccc3c2[nH]1)C(=O)OC(C)(C)C [Compound 397]
43 | < 4.00 | CCNCc1nc2c(N)nc3cc(-n4cccn4)ccc3c2[nH]1 [Compound 398]
44 | < 4.00 | CCNCc1nc2c(N)nc3cc(-c4cccs4)ccc3c2[nH]1 [Compound 399]
45 | < 4.00 | CCNCc1nc2c(N)nc3cc(-c4ccsc4)ccc3c2[nH]1 [Compound 400]
46 | < 4.00 | CNCc1nc2c(N)nc3cc(-c4cc[nH]n4)ccc3c2[nH]1 [Compound 401]
47 | < 4.00 | CNCc1nc2c(N)nc3cc(-n4cccn4)ccc3c2[nH]1 [Compound 402]
48 | < 4.00 | COc1ccc(Cn2c(CN3CCN(C)C3=O)nc3c(N)nc4cc(-c5cc[nH]n5)ccc4c32)cc1 [Compound 403]
49 | < 4.00 | COc1ccc(Cn2c(CN3C(=O)OCC3COCc3ccccc3)nc3c(N)nc4cc(-c5cc[nH]n5)ccc4c32)cc1 (centres unmarked) [Compound 404]
50 | < 4.00 | COC(=O)N(C)Cc1nc2c(N)nc3cc(-c4cc[nH]n4)ccc3c2[nH]1 [Compound 405]
51 | < 4.00 | CCN(Cc1nc2c(N)nc3cc(-c4cc[nH]n4)ccc3c2[nH]1)C(=O)OC [Compound 406]
52 | < 4.00 | Nc1nc2cc(-c3cc[nH]n3)ccc2c2[nH]c(CN3C[C@@H](c4ccccc4)CC3=O)nc12 [Compound 407]
53 | < 4.00 | Nc1nc2cc(-c3cc[nH]n3)ccc2c2[nH]c(CN3C[C@H](c4ccccc4)CC3=O)nc12 [Compound 408]
